Data from patent US11331299B2, “Medicinal use of serrulatane diterpenes” (The University of Sydney, priority 2016, dated 2022).
Read-outs that look alike come from different tables or passages of the source.

Test system: 280 human cancer cell lines
Experiment: OncoPanel cell proliferation assay (10-day)
Assay type: cell-based
Conditions: Homo sapiens; for GI50: read-out: Cell Count GI50; for IC50: read-out: Cell Count IC50; for EC50: read-out: Cell Count EC50
[1] = KHOS-240S, Soft Tissue - Osteosarcoma
[2] = ME-180, ME-180, Female GU - Ovary
[3] = MG-63, MG-63, Soft Tissue - Osteosarcoma
[4] = MHH-PREB-1, MHH-PREB-1, Leukemia
[5] = MIA PaCa-2, Mia PaCa-2, Pancreas
[6] = MS751, MS751, Female GU - Ovary
[7] = Malme-3M, MALME3M, Skin (Melanoma)

## CC(C)=CCC[C@@H]1C(O)Oc2c(C)cc(O)c3c2[C@H]1CC[C@H]3C (some centres unmarked) [Compound 2, 5,18-epoxyserrulat-14-en-8,18-diol]
[1]
  GI50: 4.58 µM
  IC50: 4.59 µM
KLE, Female GU - Uterus
  EC50: 26.3 µM
  GI50: 20.5 µM
  IC50: 26.3 µM
KPL-1, KPL-1, Breast
  EC50: 4.7 µM
  GI50: 4.7 µM
  IC50: 4.73 µM
KU812, KU812, Leukemia
  EC50: 6.52 µM
  GI50: 5.66 µM
  IC50: 6.52 µM
L-428, L-428, Lymphoma
  EC50: 8.87 µM
  GI50: 8.83 µM
  IC50: 8.87 µM
LNCaP, Prostate
  EC50: 0.86 µM
  GI50: 0.28 µM
  IC50: 0.86 µM
LS-123, LS123, Colon
  EC50: 6.57 µM
  GI50: 13.4 µM
  IC50: 18.4 µM
LS-411N, LS411N, Colon
  EC50: 23.9 µM
  GI50: 23.4 µM
  IC50: 23.9 µM
LS-1034, LS1034, Colon
  EC50: 12.7 µM
  GI50: 12 µM
  IC50: 12.7 µM
M059J, CNS - Glioma
  EC50: 9.98 µM
  GI50: 14.2 µM
  IC50: 15.8 µM
MC116, MC116, Lymphoma
  EC50: 13.8 µM
  GI50: 13.8 µM
  IC50: 13.8 µM
MC-IXC, CNS - Neuroblastoma
  EC50: 16.9 µM
  GI50: 16.9 µM
  IC50: 16.9 µM
MCF7, MCF7, Breast
  EC50: 10.4 µM
  GI50: 9.96 µM
  IC50: 10.4 µM
MDA-MB-231, MDA MB 231, Breast
  EC50: 4.39 µM
  GI50: 4.36 µM
  IC50: 4.39 µM
MDA-MB-436, MDA-MB-436, Breast
  EC50: 9.72 µM
  GI50: 9.73 µM
  IC50: 9.77 µM
MDA-MB-453, MDA MB 453, Breast
  EC50: 3.68 µM
  GI50: 3.65 µM
  IC50: 3.69 µM
MDA-MB-468, MDA MB 468, Breast
  EC50: 8.07 µM
  GI50: 8 µM
  IC50: 8.08 µM
[2]
  EC50: > 30 µM
  GI50: > 30 µM
  IC50: > 30 µM
MEG-01, MEG01, Leukemia
  EC50: 13.8 µM
  GI50: 13.7 µM
  IC50: 13.8 µM
MES-SA, Soft Tissue - Sarcoma
  EC50: 9.26 µM
  GI50: 9.22 µM
  IC50: 9.26 µM
[3]
  EC50: > 30 µM
  GI50: > 30 µM
  IC50: > 30 µM
[4]
  EC50: 7.85 µM
  GI50: 7.85 µM
  IC50: 7.85 µM
[5]
  EC50: 16.3 µM
  GI50: 16.2 µM
  IC50: 16.3 µM
MOLT-3, MOLT-3, Leukemia
  EC50: 1.27 µM
  GI50: 1.26 µM
  IC50: 1.27 µM
MOLT-16, MOLT-16, Leukemia
  EC50: 13.3 µM
  GI50: 13.3 µM
  IC50: 13.3 µM
[6]
  EC50: 7.55 µM
  GI50: 8.72 µM
  IC50: 8.78 µM
MT-3, Colon
  EC50: 16.9 µM
  GI50: 16.8 µM
  IC50: 16.9 µM
MV4-11, MV-4-11, Leukemia
  EC50: 8.56 µM
  GI50: 8.52 µM
  IC50: 8.56 µM
MX1, Leukemia
  EC50: 10.8 µM
  GI50: 10.8 µM
  IC50: 10.8 µM
[7]
  EC50: 19.8 µM
  GI50: 17.3 µM
  IC50: 19.8 µM
MeWo, Skin (Melanoma)
  EC50: 9.45 µM
  GI50: 9.91 µM
  IC50: 9.97 µM
NALM-6, NALM-6, Leukemia
  EC50: 1.67 µM
  GI50: 1.68 µM
  IC50: 1.68 µM
NAMALWA, Lymphoma
  EC50: 5.71 µM
  GI50: 5.7 µM
  IC50: 5.71 µM
NCI-H69, NCI-H69, Lung - SCLC
  EC50: 16.2 µM
  GI50: 14.9 µM
  IC50: 16.2 µM
